Results from patent publication US10792365B2, “Peptide derivative and use thereof” (Toray Industries, Inc., priority 2016, dated 2020).
Counter-ions that a name gives are not always drawn. Like-named read-outs stand apart in the source and are kept apart here.

What was measured:
A549 cells [1] = assay type: cell-based, human; conditions: 48 h
Description: (§1) The compound of Example 12 and the compound of Example 13 were measured for cytotoxicity thereof on SKOV-3 cells, A549 cells, and L1210 cells by using MTS method.
(§2) An evaluation method of the compound of Example 12 is as follows: To each cell culturing in a medium that is absent of folate, the compound of Example 12 was treated for two hours, and then the cells transferred to a fresh medium absent of the compound and continuously maintained and cultured for 48 hours. Surviving cells after 48 hours were counted by using MTS method.
as §2, with “13” for “12”, “six” for “two”
(§3) It has been reported that SKOV-3 cells and L1210 cells express folate acceptors in medium to high expression level on their cell surface. It has been reported that A549 cells express folate acceptors in low expression level or undetectable level on its cell surface (Analytical Biochemistry, (2005), 338: pp. 284-293; Molecular Cancer Therapeutics, (2015), 14: pp. 1605 to 13).

SKOV-3 cells [2] = assay type: cell-based, human; conditions: 48 h
Description: as §1, §2
as §2, with “13” for “12”, “six” for “two”
as §3

L1210 cells [3] = assay type: cell-based, mouse; conditions: 48 h
Description: as §1, §2
as §2, with “13” for “12”, “six” for “two”
as §3

SKOV-3 cells [4] = experiment: In vitro cytotoxicity of the peptide derivative (I), MTS method, SKOV-3 cells; assay type: cell-based, human; conditions: Homo sapiens, SK-OV-3
Source text: (§4) The cytotoxicity of the peptide derivative (I) or a pharmaceutically acceptable salt thereof, or the conjugate including the peptide derivative (I) or a pharmaceutically acceptable salt thereof can be evaluated with an in vitro study. Examples of the in vitro studies include the trypan blue dye exclusion method, the lactate dehydrogenase (LDH) activity assay, [^3H]thymidine incorporation method, or propidium iodide nuclear stain that each measures the number of dead cells or surviving cells post treated with the compound; a method using dyes such as MTT, MTS, and WST (Current Protocol in Toxicology, (2000), 2.6.1-2.6.27); or a method in which the amount of ATP is measured using CellTiter-Glow (Promega Corporation) and the like, and preferably include the method in which the number of surviving cells post treated with the compound is measured by using the MTS method to determine values of the cytotoxicity at that time from 50% effect-concentration (EC50). Furthermore, in the evaluation of the cytotoxicity of the conjugate including the peptide derivative (I) or a pharmaceutically acceptable salt thereof, preferred method is the one that for a certain time, cells are treated with a medium containing the compound, the cells are then transferred to a medium not containing the compound, and the number of surviving cells are measured after cultivation for additional certain time (Bioconjugate Chemistry., 2014; 25: pp. 560-568). For the in vitro studies, human ovarian cancer cell SKOV-3 cells, human alveolar basement epithelial gland cancer cell A549 cells, mouse lymphocytic leukocyte L1210 cells and the like are used.

A549 cells [5] = experiment: In vitro cytotoxicity of the peptide derivative (I), MTS method, A549 cells; assay type: cell-based, human; conditions: Homo sapiens
Source text: as §4

L1210 cells [6] = experiment: In vitro cytotoxicity of the peptide derivative (I), MTS method, L1210 cells; assay type: cell-based, mouse; conditions: Mus musculus
Source text: as §4

[7] = Parallel Artificial Membrane Permeation Assay (PAMPA), Pre-coated PAMPA Plate System (Corning)
Description: Reference Example 14, the Compound of Reference Example 16, and the Compound of Comparative Example was Evaluated by Using Pre-Coated PAMPA PlateSystem (Corning)
A frozen-stored, Pre-coated PAMPA Plate System was allowed to stand at room temperature for thirty minutes or more. Subsequently, 320 μL of the standard solution was added to a Donor side plate of Pre-coated PAMPA Plate System, and 200 μL of the PBS containing 20% of methanol was added to an Acceptor side plate. Both of the plates were set for the system, and the plates allowed to stand at room temperature for five hours. The reaction liquid in each well of the Donor side and Acceptor side plates was subjected to LC/MS analysis (hereinafter, LC/MS-3), and the concentration of the compounds in each well calculated.
Using the obtained concentration of the compounds in the reaction liquid in each well, the membrane permeability coefficients (Pe) (cm/s) were calculated by the following formula: Cequilibrium=[…] Pe=[−ln(1−CA/Cequilibrium)]/S×(1/VD+1/VA)×t Cequilibrium: Equilibrium concentration of the wells in the Donor side and Acceptor side plates CD: Concentration after five hours of the wells in the Donor side plate (mmol/L) VD: Volume of the standard solution added to the wells in the Donor side plate (0.32 mL) CA: Concentration after five hours of the wells in the Acceptor side plate (mmol/L) VA: Volume of the PBS containing 20% of methanol added to the wells in the Acceptor side plate (0.2 mL) S: Surface of the membrane (0.3 cm^2) t: Standing time 18,000 s (=5 hrs).

Row | Compound | EC50 (A549 cells [1]) | EC50 (SKOV-3 cells [2]) | EC50 (L1210 cells [3]) | EC50 (SKOV-3 cells [4]) | EC50 (A549 cells [5]) | EC50 (L1210 cells [6]) | Papp at 5 h, 200 μmol/L [7]
1 | CC[C@H](C)C([C@@H](CC(=O)N1CCC[C@H]1[C@H](OC)[C@@H](C)C(=O)N[C@@H](Cc1ccccc1)c1nc(C(=O)N(C)CCSSCCN(C)C(=O)CCOCCOCCOCCOCCOCCOCCOCCOCCOCCOCCOCCOCCNC(=O)CCN2C(=O)CC(SCCNC(=O)[C@H](CCC(=O)O)NC(=O)CC[C@H](NC(=O)c3ccc(NCc4c[nH]c5nc(N)nc(=O)c-5n4)cc3)C(=O)O)C2=O)cs1)OC)N(C)C(=O)[C@@H](NC(=O)[C@H](C(C)C)N(C)C)C(C)C (stereo in doubt) [Example 13] | > 300 nM | 19.4 nM | 36 nM | – | – | – | –
2 | CC[C@H](C)[C@@H]([C@@H](CC(=O)N1CCC[C@H]1[C@H](OC)[C@@H](C)C(=O)N[C@@H](Cc1ccccc1)c1nc(C(=O)NCCN)cs1)OC)N(C)C(=O)[C@@H](NC(=O)[C@H](C(C)C)N(C)C)C(C)C [Reference Example 12, N-(2-aminoethyl)-2-((S)-1-(((2S,3R)-3-((S)-1-((3R,4S,5S)-4-((S)-2-((S)-2-(dimethylamino)-3-methylbutanamido)-N, 3-dimethylbutanamido)-3-methoxy-5-methylheptanoyl)pyrrolidin-2-yl)-3-methoxy-2-methylpropanamido)-2-phenylethyl)thiazole-4-carboxamidedihydrochloride, reference compound] | – | – | – | > 10 nM | > 10 nM | > 50 nM | 0.01 ×10⁻⁶ cm/s
3 | CC[C@H](C)[C@@H]([C@@H](CC(=O)N1CCC[C@H]1[C@H](OC)[C@@H](C)C(=O)N[C@@H](Cc1ccccc1)c1nc(C(=O)NCCNC)cs1)OC)N(C)C(=O)[C@@H](NC(=O)[C@H](C(C)C)N(C)C)C(C)C [Reference Example 14, 2-((S)-1-(((2S,3R)-3-((S)-1-((3R,4S,5S)-4-((S)-2-((S)-2-(dimethylamino)-3-methylbutanamido)-N,3-dimethylbutanamido)-3-methoxy-5-methylheptanoyl)pyrrolidin-2-yl)-3-methoxy-2-methylpropanamido)-2-phenylethyl)-N-(2-(methylamino)ethyl)thiazole-4-carboxamidedihydrochloride, reference compound] | – | – | – | > 10 nM | 9.85 nM | 26.8 nM | 0.004 ×10⁻⁶ cm/s
